A word on the inhibition in vivo: it is the relative decrease from the control value, in per cent. By MIC is commonly meant the least concentration at which growth counts as inhibited. A word on the IC50: it is the point on the concentration scale where inhibition reaches its midpoint.

The test system of test [1] is Plasmodium berghei. Nature of the test: Growth inhibition of Plasmodium berghei infected in mouse. The class given is functional.
Test [2] is described as follows: Selectivity index, ratio of CC50 for rat L6 cells to IC50 for Trypanosoma brucei rhodesiense STIB900. In kind it is functional.
The subject of test [3] is Plasmodium berghei. Kind of test: Antiplasmodial activity against GFP-transfected Plasmodium berghei ANKA infected in NMRI mouse assessed as reduction in parasitemia at 50 mg/kg, ip administered 4, 24, 48 and 72 hrs post infection by FACS analysis. To be noted: route intraperitoneal. The class given is functional.
Test [4] relates to Plasmodium berghei. Kind of test: Antiplasmodial activity against GFP-transfected Plasmodium berghei ANKA infected in NMRI mouse assessed as mean survival day at 50 mg/kg, ip administered 4, 24, 48 and 72 hrs post infection (reference value: 4 to 6 days). In kind it is functional. Conditions: route intraperitoneal.
The test system of test [5] is Mycolicibacterium smegmatis. Nature of the test: Antimycobacterial activity against Mycobacterium smegmatis ATCC 14468 assessed as inhibition of bacterial growth after 72 hrs by MTT dye based microbroth dilution assay. The class given is functional. Conditions: ATCC 14468, 72 h. A general note: Tetrazolium dyes change colour on reduction, which living cells bring about.

The next test deals with Staphylococcus aureus. Kind of test: Antibacterial activity against Staphylococcus aureus ATCC 25923 at 100 ug after 24 hrs. In kind it is functional. To be noted: ATCC 25923, 24 h, read-out: DIZ.
For another test, the system named is Escherichia coli. Nature of the test: Antibacterial activity against Escherichia coli ATCC 25922 at 100 ug after 24 hrs. The class given is functional. To be noted: ATCC 25922, 24 h, read-out: DIZ.
The next test has as its system Enterococcus faecalis. Kind of test: Antibacterial activity against Enterococcus faecalis ATCC 14506 at 100 ug after 24 hrs. The class given is functional. To be noted: ATCC 14506, 24 h, read-out: DIZ.
Test [6] relates to Plasmodium berghei. Kind of test: Antiplasmodial activity against GFP-transfected Plasmodium berghei ANKA infected in NMRI mouse assessed as reduction in parasitemia at 10 mg/kg, ip administered 4, 24, 48 and 72 hrs post infection by FACS analysis. Conditions: route intraperitoneal. In kind it is functional.
The subject of test [7] is Plasmodium berghei. Nature of the test: Antiplasmodial activity against GFP-transfected Plasmodium berghei ANKA infected in NMRI mouse assessed as mean survival day at 10 mg/kg, ip administered 4, 24, 48 and 72 hrs post infection (reference value: 4 days). Conditions: route intraperitoneal. The class given is functional.
The test system of the next test is Plasmodium falciparum. Kind of test: Antiplasmodial activity against chloroquine and pyrimethamine resistant Plasmodium falciparum K1 infected in human red blood cells assessed as reduction in parasite viability after 48 hrs by [3H]-hypoxanthine incorporation assay. The class given is functional, organism-based.
For the next test, the system named is L6. Kind of test: Cytotoxicity against rat L6 cells after 72 hrs by alamar blue assay. The class given is cell-based. Conditions: L6, 72 h. (In general: The colour change of resazurin is a common sign of viable cells or microbes.)
Test [8] can be described thus: Selectivity index, ratio of CC50 for rat L6 cells to IC50 for chloroquine and pyrimethamine resistant Plasmodium falciparum K1. The class given is functional.
In test [9] the test system is Trypanosoma brucei rhodesiense. Kind of test: Antitrypanosomal activity against Trypanosoma brucei rhodesiense STIB900 bloodstream forms after 72 hrs by alamar blue assay. In kind it is functional, organism-based. To be noted: STIB900, 72 h.
For another test, the system named is Proteus mirabilis. Nature of the test: Antibacterial activity against Proteus mirabilis ATCC 14153 at 100 ug after 24 hrs. The class given is functional. Conditions: ATCC 14153, 24 h, read-out: DIZ.
The test system of the next test is Candida tropicalis. Kind of test: Antifungal activity against Candida tropicalis ATCC 13803 at 100 ug after 48 hrs. In kind it is functional, organism-based.
A further test concerns Candida parapsilosis. Nature of the test: Antifungal activity against Candida parapsilosis ATCC 90018 at 100 ug after 48 hrs. In kind it is functional, organism-based.

Values after ≈ are worked out from the molar mass of the structure shown.

With `CN(C)C12CCNC(C(c3ccccc3)C1)C(c1ccccc1)C2.Cl` (racemic), in the test on Plasmodium berghei [1], the “growth inhibition (GI)” value turned out to be 35%. For the same compound, in [2], the “Ratio IC50” value was found to be 181. For the same compound, the inhibition in vivo at 50 mg/kg in the test with Plasmodium berghei [3] is 35.1%. In the test on Plasmodium berghei [4], the MSD stood at 6.3 days.

`NNC(=O)c1ccncc1` [ISONIAZID]: the MIC in test [5] was 4 µg/mL (≈ 29.2 µM).

For the compound `CC1(C)S[C@@H]2[C@H](NC(=O)Cc3ccccc3)C(=O)N2[C@H]1C(=O)O` [PENICILLIN G], the values for the zone of inhibition at 100 µg/disc in the test on Staphylococcus aureus, in the test on Escherichia coli and in the test on Enterococcus faecalis were 30 mm, 15 mm and 20 mm, respectively.

On to `CN(C)C12CCNC(C(c3ccc(Cl)cc3)C1)C(c1ccc(Cl)cc1)C2.Cl` (racemic), for which the “Ratio IC50” value in test [2] was 143.

For the compound `CCN(CC)CCCC(C)Nc1ccnc2cc(Cl)ccc12` (centres undefined) [CHLOROQUINE], in the test with Plasmodium berghei [6], the inhibition in vivo at 10 mg/kg was determined as 99.6%. Also, the MSD in the test with Plasmodium berghei [7] was 20 days.

With `C[C@@H]1CC[C@H]2[C@@H](C)C(=O)O[C@@H]3O[C@@]4(C)CC[C@@H]1[C@]32OO4` [ARTEMISININ], the half-inhibitory concentration (IC50) in the test on Plasmodium falciparum came to 0.0064 µM.

Take `Cl.O=C1CC2(N3CCCCC3)CC(c3ccccc3)C(N1)C(c1ccccc1)C2` (racemic): in test [2], the “Ratio IC50” value turned out to be 6.4.

As for `CN(C)C12CNCC(C(c3ccccc3)C1)C(c1ccccc1)C2.Cl` (racemic), the values for the 50% inhibitory concentration (IC50) (in the test with L6; with Plasmodium falciparum; in test [9]) were 122 µM, 0.27 µM and 1.58 µM, respectively. The “Ratio IC50” value in test [8] came to 452.2; in test [2] it was 77.3. Moreover, the inhibition in vivo at 50 mg/kg in the test on Plasmodium berghei [3] is 0%. Besides, the MSD with Plasmodium berghei [4] turned out to be 4 days.

`Cl.Clc1ccc(C2CC3(N4CCCCC4)CCNC2C(c2ccc(Cl)cc2)C3)cc1` (racemic): the “Ratio IC50” value in test [2] was determined as 124.

In the case of `NC[C@H]1O[C@H](O[C@H]2[C@H](O)[C@@H](O[C@H]3O[C@H](CO)[C@@H](O)[C@H](N)[C@H]3O)[C@H](N)C[C@@H]2N)[C@H](O)[C@@H](O)[C@@H]1O` [KANAMYCIN], the zone of inhibition at 100 µg/disc in the test on Escherichia coli and in the test with Proteus mirabilis was 20 mm throughout.

As to `Cl.O=C1CC2(N3CCCC3)CC(c3ccccc3)C(N1)C(c1ccccc1)C2` (racemic), the “Ratio IC50” value stood at 28.5 in test [8] and 6.6 in test [2].

As to NYSTATIN, the inhibition zone (IZ) amounted to 20 mm with Candida tropicalis and 25 mm with Candida parapsilosis.

`Cl.O=C1NCC2(N3CCOCC3)CC(c3ccccc3)C1C(c1ccccc1)C2` (centres undefined): the figures for the IC50 (with L6; in the test on Plasmodium falciparum; in test [9]) were more than 239 µM, more than 13.3 µM and 128 µM, respectively. The “Ratio IC50” value in [8] was determined as 18; in test [2], 1.9.

Consider `Cl.c1ccc(C2CC3(N4CCCC4)CCNC2C(c2ccccc2)C3)cc1` (racemic), for which the “Ratio IC50” value in test [2] amounted to 103.

For `Cl.O=C1CC2(N3CCOCC3)CC(c3ccccc3)C(N1)C(c1ccccc1)C2` (racemic), the concentration for half-maximal inhibition (IC50) was more than 239 µM in the test with L6, more than 13.3 µM with Plasmodium falciparum and 138 µM in test [9]. In addition, the results for the “Ratio IC50” value in test [8] and in test [2] were 18 and 1.7, respectively.

In the case of `Cl.Clc1ccc(C2CC3(N4CCCC4)CCNC2C(c2ccc(Cl)cc2)C3)cc1` (racemic), the “Ratio IC50” value in test [2] is 152.

In the case of `Cl.c1ccc(C2CC3(N4CCOCC4)CNCC2C(c2ccccc2)C3)cc1` (racemic), the figures for the IC50 (in the test on L6; in the test on Plasmodium falciparum; in test [9]) were 43.3 µM, 0.65 µM and 3.84 µM, respectively. The entries for the “Ratio IC50” value in test [8] and in [2] were 66.63 and 11.3, respectively.

Regarding `Cl.c1ccc(C2CC3(N4CCCCC4)CNCC2C(c2ccccc2)C3)cc1` (racemic), the IC50 in the test on L6 is 122 µM; with Plasmodium falciparum it was 0.75 µM; in test [9], 2.02 µM. Also, the “Ratio IC50” value is listed as 163.1 in test [8] and 60.5 in test [2].

Consider `CN(C)C12CC(=O)NC(C(c3ccccc3)C1)C(c1ccccc1)C2.Cl` (racemic), for which the “Ratio IC50” value in test [2] stood at 7.1.

`Cl.c1ccc(C2CC3(N4CCCCC4)CCNC2C(c2ccccc2)C3)cc1` (racemic): the “Ratio IC50” value in [2] came to 13.7.

For `Cl.c1ccc(C2CC3(N4CCOCC4)CCNC2C(c2ccccc2)C3)cc1` (racemic), the half-maximal inhibitory concentration (IC50) is more than 207 µM with L6, 6.84 µM with Plasmodium falciparum and 9.44 µM in test [9]. The “Ratio IC50” value stood at 30.22 in test [8] and 21.9 in test [2].

For `Cl.Clc1ccc(C2CC3(N4CCCC4)CNCC2C(c2ccc(Cl)cc2)C3)cc1` (racemic), the figures for the 50% inhibitory concentration (IC50) (with L6; in test [9]) were 9.11 µM and 0.26 µM, respectively. Besides, the “Ratio IC50” value in test [2] stood at 35.

Take `CN(C)C12CNCC(C(c3ccc(Cl)cc3)C1)C(c1ccc(Cl)cc1)C2.Cl` (centres undefined): the results for the IC50 (in the test on L6; with Plasmodium falciparum; in test [9]) were 8.96 µM, 0.77 µM and 0.34 µM, respectively. For the same compound, the figures for the “Ratio IC50” value in test [8] and in test [2] were 11.63 and 26.4, respectively.

Turning to `Cl.Clc1ccc(C2CC3(N4CCCCC4)CNCC2C(c2ccc(Cl)cc2)C3)cc1` (racemic), the results for the half-maximal inhibitory concentration (IC50) (with L6; with Plasmodium falciparum; in test [9]) were 8.09 µM, 0.37 µM and 0.32 µM, respectively. Besides, the “Ratio IC50” value in test [8] is reported as 21.86; in test [2] it was 25.3.

These data come from ChEMBL document CHEMBL3400138, “Synthesis of 3-azabicyclo[3.2.2]nonanes and their antiprotozoal activities” (Bioorg Med Chem Lett, 2015).
